Assay: Particle size of drug particles after bead mill grinding (Microtrac UPA 150 M)
Assay type: physicochemical
Details: slurry with PVP K-25 3 w/w % and sodium lauryl sulfate 0.25 w/w % in water, pH 6.07-10.37; zirconia beads 0.5 mm; ground 120 minutes
Experimental: Phenitoin (Shizuoka Caffein Co., Ltd.) (7.5 g, 5 w/w %) as a drug, polyvinylpyrrolidone (PVP K-25, BASF Japan Ltd.) (4.5 g, 3 w/w %) as a polymer compound, sodium lauryl sulfate (Cognis Japan Ltd.) (0.375 g, 0.25 w/w %) as a surfactant were dispersed in 137.6 g of purified water to prepare a slurry. The pH of the slurry was 3.88. The pH was adjusted by adding 1N aqueous sodium hydroxide solution to this slurry, and samples having various pH (pH 6.07, 6.68, 7.36, 8.14, 8.96, 10.37) were prepared.
Each sample (100 g) and beads (217.3 g, filling ratio 70%) were charged into Dyno-mill Research Lab (manufactured by WAB), and the grinding process by the bead mill was carried out for 120 minutes (disc peripheral speed: 4 m/s, temperature: 20° C., fluid speed: 45 g/min). The beads used for the grinding process were YTZ ball (zirconia beads manufactured by Nikkato Corporation, with diameter of 0.5 mm). As used herein, the term “filling ratio” refers to the ratio (in percentage) of the true volume to the bulk volume of the beads, and hereinafter the same is applied.
The particle size of the drug particles after the grinding process was nano-order of less than 1 μm (D50 value). The particle size was determined using Microtrac UPA 150 M (MicrotracBEL Corp.). […]

particle size of the drug particles after the grinding process (D50 value): less than 1 μm
Compound: O=C1NC(=O)C(c2ccccc2)(c2ccccc2)N1 [Phenitoin, Phenytoin]

From patent US12285526B2, “Nanoparticle composition with reduced contaminant and production method thereof” (Shionogi & Co., Ltd., priority 2019, dated 2025)
